According to article PMC6154534, “New Benzimidazole-1,2,4-Triazole Hybrid Compounds: Synthesis, Anticandidal Activity and Cytotoxicity Evaluation” (Molecules : A Journal of Synthetic Chemistry and Natural …, 2017):
≈ marks a conversion by molar mass, not a printed value.

How the values were obtained:
Candida species = assay: Anticandidal broth microdilution, results summarised over all strains; assay type: cell-based; conditions: summary over all four Candida strains; for MIC50: Candida, read-out: MIC50 against Candida species
Experimental: (§1) Synthesized compounds (5a-5ad) were evaluated for anticandidal activity against C. albicans (ATCC 24433), C. krusei (ATCC 6258), C. parapsilosis (ATCC 22019) and C. [NT] 90030). MIC50 values were evaluated via fluorometric measurements, using resazurin solution [56, 57]. […] [NT] 90030). MIC readings were carried out twice for each chemical agent. The yeasts were maintained in RPMI after overnight incubation at 37 °C. The inocula of test microorganisms adjusted to match the turbidity of a MacFarland 0.5 standard tube as determined with a spectrophotometer and the final inoculum size was 0.5-2.5 × 10^5 cfu/mL for antifungal assay. Testing was carried out in RPMI at pH = 7 and the two-fold serial dilutions technique was applied. The last well on the microplates containing only inoculated broth was kept as controls and the last well with no growth of microorganism was recorded to represent the MIC50 expressed in μg/mL. For the antifungal assays, the compounds were dissolved in DMSO. […] The completed plates were incubated for 24 h. At the end of the incubation, resazurin (20 μg/mL) was added into each well to control whether the growth in wells. Then, plates were allowed to incubate for 2 h. MIC50 values were determined using a microplate reader at […].

[1] = test system: NIH/3T3 mouse embryonic fibroblast cell line (ATCC CRL1658); assay: MTT cytotoxicity assay; assay type: cell-based; conditions: NIH3T3, tested 800 to 0.78 µg/mL, read-out: IC50 on NIH/3T3 mouse embryonic fibroblast cell lines
From the text: Toxicity is a key cause of failure at all steps of the new drug development process. The most part of safety-related problems occur at preclinical phases to predict preclinical safety liabilities earlier in the new drug development process. This approach allows to design and/or selection of better drug candidates that have more potentials to be marketed drugs. […] Cytotoxicities of selected compounds (5m, 5o, 5r, 5w, 5y, 5ab, and 5ad), displaying strong anticandidal activity and good predicted pharmacokinetics, were determined against NIH/3T3 mouse embryonic fibroblast cell lines (ATCC CRL1658).
Cytotoxicity was tested using the NIH/3T3 mouse embryonic fibroblast cell line (ATCC® CRL-1658™, London, UK). NIH/3T3 cells were incubated according to the supplier’s recommendations and they were seeded at 1 × 10^4 cells into each well of 96-well plates. MTT assay was performed as previously described. The compounds were tested in a concentration range of 800 µg/mL and 0.78 µg/mL concentrations. Percent inhibition was calculated for each concentration according to the formula below, and IC50 values were determined by plotting a concentration–response curve of inhibition percent versus compound concentrations tested.

C. albicans (ATCC 24433) = assay: Anticandidal broth microdilution (EUCAST EDef 7.1), resazurin fluorometric readout; assay type: cell-based; conditions: Candida albicans, ATCC24433; ATCC 24433, RPMI pH 7, 24 h incubation
Experimental: as §1

C. glabrata (ATCC 90030) = assay: as above; assay type: cell-based; conditions: Nakaseomyces glabratus, ATCC90030; ATCC 90030, RPMI pH 7, 24 h incubation
Experimental: as §1

C. krusei (ATCC 6258) = assay: as above; assay type: cell-based; conditions: Pichia kudriavzevii, ATCC6258; ATCC 6258, RPMI pH 7, 24 h incubation
Experimental: as §1

[2] = test system: C. parapsilosis (ATCC 22019); assay: as above; assay type: cell-based; conditions: Lodderomyces parapsilosis, ATCC22019; ATCC 22019, RPMI pH 7, 24 h incubation; read-out: MIC50 C. parapsilopsis
Experimental: as §1

[3] = test system: ergosterol biosynthesis in C. albicans (ATCC 24433); assay: Quantification of ergosterol level by LC-MS-MS; assay type: cell-based; conditions: 0.78, 1.56 and 3.12 µg/mL, 16 h, negative control = 100%
From the text: The most of therapies, planned to treat fungal infections, target in the ergosterol biosynthesis pathway or its end product, ergosterol, a membrane sterol that is unique to fungi. It is the main sterol, and thus is essential for growth and normal membrane function of fungal cell. Besides serving as a bioregulator of membrane fluidity, asymmetry and integrity, it contributes to proper function of membrane-bound enzymes. […] Total intracellular sterols were extracted as reported by Breivik and Owades. […] Ergosterol standard (Product No. 45480, Sigma-Aldrich, Darmstadt, Germany) was used for quantification of ergosterol in both inhibitor-free (negative control) and inhibitor including samples. Ergosterol quantity in negative control samples was regarded as 100%. All concentrations were analyzed in quadruplicate, and the results were expressed as mean ± standard deviation (SD) (Figure 2).
Total intracellular sterols were extracted as reported by Breivik and Owades with slight modifications. […] The cultures were incubated for 16 h with shaking at 35 °C. […] Ergosterol quantity in negative control samples was regarded as 100%. All concentrations were analyzed in quadruplicate, and the results were expressed as mean ± standard deviation (SD).

For `CCn1c(SCC(=O)c2ccc(F)cc2)nnc1-c1ccc(-c2nc3ccc(Cl)cc3[nH]2)cc1` [Compound 5r, 2-((5-(4-(6-Chloro-1H-benzimidazol-2-yl)phenyl)-4-ethyl-4H-1,2,4-triazol-3-yl)thio)-1-(4-fluorophenyl)ethan-1-one], the MIC50 (Candida species) was 0.78 to 1.56 µg/mL (≈ 1.59 to 3.17 µM), the IC50 [1] was 13.9 ± 0.69 µg/mL (≈ 28.3 µM) and the melting point was 265.5 °C. It also gave an MIC50 (C. albicans (ATCC 24433)) of 0.78 µg/mL (≈ 1.59 µM), an MIC50 (C. glabrata (ATCC 90030)) of 0.78 µg/mL (≈ 1.59 µM) and an MIC50 (C. krusei (ATCC 6258)) of 1.56 µg/mL (≈ 3.17 µM). The MIC50 [2] was 1.56 µg/mL (≈ 3.17 µM).

`Cn1c(SCC(=O)c2ccc(F)cc2F)nnc1-c1ccc(-c2nc3ccc(F)cc3[nH]2)cc1` [Compound 5y, 1-(2,4-Difluorophenyl)-2-((5-(4-(6-fluoro-1H-benzimidazol-2-yl)phenyl)-4-methyl-4H-1,2,4-triazol-3-yl)thio)ethan-1-one] gave an MIC50 (Candida species) of 0.78 to 1.56 µg/mL (≈ 1.63 to 3.25 µM), an IC50 [1] of 11.1 ± 0.57 µg/mL (≈ 23.2 µM) and a melting point of 263.2 °C. For the same compound, the MIC50 (C. albicans (ATCC 24433)) was 0.78 µg/mL (≈ 1.63 µM), the MIC50 (C. glabrata (ATCC 90030)) was 1.56 µg/mL (≈ 3.25 µM) and the MIC50 (C. krusei (ATCC 6258)) was 0.78 µg/mL (≈ 1.63 µM). For the same compound, the MIC50 [2] was 1.56 µg/mL (≈ 3.25 µM).

`Cn1c(SCC(=O)c2ccc(F)cc2)nnc1-c1ccc(-c2nc3ccc(Cl)cc3[nH]2)cc1` [Compound 5m, 2-((5-(4-(6-Chloro-1H-benzimidazol-2-yl)phenyl)-4-methyl-4H-1,2,4-triazol-3-yl)thio)-1-(4-fluorophenyl)ethan-1-one] showed an MIC50 (Candida species) of 0.78 to 1.56 µg/mL (≈ 1.63 to 3.26 µM), an IC50 [1] of 17.4 ± 0.89 µg/mL (≈ 36.4 µM) and a melting point of 274.5 °C. For the same compound, the MIC50 (C. albicans (ATCC 24433)) was 0.78 µg/mL (≈ 1.63 µM), the MIC50 (C. glabrata (ATCC 90030)) was 1.56 µg/mL (≈ 3.26 µM) and the MIC50 (C. krusei (ATCC 6258)) was 0.78 µg/mL (≈ 1.63 µM). For the same compound, the MIC50 [2] was 0.78 µg/mL (≈ 1.63 µM).

With `Cn1c(SCC(=O)c2ccc(F)cc2F)nnc1-c1ccc(-c2nc3ccc(Cl)cc3[nH]2)cc1` [Compound 5o, 2-((5-(4-(6-Chloro-1H-benzimidazol-2-yl)phenyl)-4-methyl-4H-1,2,4-triazol-3-yl)thio)-1-(2,4-difluorophenyl)ethan-1-one] the MIC50 (Candida species) was 0.78 to 1.56 µg/mL (≈ 1.57 to 3.15 µM), the IC50 [1] was 1.63 ± 0.02 µg/mL (≈ 3.29 µM) and the melting point was 264.9 °C. It also gave an MIC50 (C. albicans (ATCC 24433)) of 0.78 µg/mL (≈ 1.57 µM), an MIC50 (C. glabrata (ATCC 90030)) of 1.56 µg/mL (≈ 3.15 µM) and an MIC50 (C. krusei (ATCC 6258)) of 1.56 µg/mL (≈ 3.15 µM). It also gave an MIC50 [2] of 0.78 µg/mL (≈ 1.57 µM).

Compound `CCn1c(SCC(=O)c2ccc(F)cc2F)nnc1-c1ccc(-c2nc3ccc(Cl)cc3[nH]2)cc1` [Compound 5t, 2-((5-(4-(6-Chloro-1H-benzimidazol-2-yl)phenyl)-4-ethyl-4H-1,2,4-triazol-3-yl)thio)-1-(2,4-difluorophenyl)ethan-1-one] has an MIC50 (Candida species) of 0.78 to 1.56 µg/mL (≈ 1.53 to 3.06 µM), a melting point of 250.6 °C and an MIC50 (C. albicans (ATCC 24433)) of 0.78 µg/mL (≈ 1.53 µM). For the same compound, the MIC50 (C. glabrata (ATCC 90030)) was 1.56 µg/mL (≈ 3.06 µM), the MIC50 (C. krusei (ATCC 6258)) was 0.78 µg/mL (≈ 1.53 µM) and the MIC50 [2] was 0.78 µg/mL (≈ 1.53 µM).

With `CCn1c(SCC(=O)c2ccc(F)cc2F)nnc1-c1ccc(-c2nc3ccc(F)cc3[nH]2)cc1` [Compound 5ad, 1-(2,4-Difluorophenyl)-2-((4-ethyl-5-(4-(6-fluoro-1H-benzimidazol-2-yl)phenyl)-4H-1,2,4-triazol-3-yl)thio)ethan-1-one] the MIC50 (Candida species) was 0.78 to 1.56 µg/mL (≈ 1.58 to 3.16 µM), the “level of ergosterol in C. albicans (in words)” value [3] was “significantly decreased the level of ergosterol at all tested concentrations” and the IC50 [1] was 120 ± 4.39 µg/mL (≈ 242 µM). The melting point was 234.2 °C, the MIC50 (C. albicans (ATCC 24433)) was 0.78 µg/mL (≈ 1.58 µM) and the MIC50 (C. glabrata (ATCC 90030)) was 0.78 µg/mL (≈ 1.58 µM). It also gave an MIC50 (C. krusei (ATCC 6258)) of 1.56 µg/mL (≈ 3.16 µM) and an MIC50 [2] of 0.78 µg/mL (≈ 1.58 µM).

Compound `Cn1c(SCC(=O)c2ccc(Cl)cc2Cl)nnc1-c1ccc(-c2nc3ccc(Cl)cc3[nH]2)cc1` [Compound 5n, 2-((5-(4-(6-Chloro-1H-Benzimidazol-2-yl)phenyl)-4-methyl-4H-1,2,4-triazol-3-yl)thio)-1-(2,4-dichlorophenyl)ethan-1-one] has an MIC50 (Candida species) of 1.56 to 3.12 µg/mL (≈ 2.95 to 5.9 µM), a melting point of 274.2 °C and an MIC50 (C. albicans (ATCC 24433)) of 1.56 µg/mL (≈ 2.95 µM). The MIC50 (C. glabrata (ATCC 90030)) was 3.12 µg/mL (≈ 5.9 µM), the MIC50 (C. krusei (ATCC 6258)) was 1.56 µg/mL (≈ 2.95 µM) and the MIC50 [2] was 3.12 µg/mL (≈ 5.9 µM).

In the case of `CCn1c(SCC(=O)c2ccc(Cl)cc2)nnc1-c1ccc(-c2nc3ccc(F)cc3[nH]2)cc1` [Compound 5aa, 1-(4-Chlorophenyl)-2-((4-ethyl-5-(4-(6-fluoro-1H-benzimidazol-2-yl)phenyl)-4H-1,2,4-triazol-3-yl)thio)ethan-1-one], the “anticandidal activity against Candida strains (in words)” value (Candida species) is reported as “did not show strong activity”, the melting point is reported as 241.4 °C and the MIC50 (C. albicans (ATCC 24433)) is reported as 6.25 µg/mL (≈ 12.7 µM). The MIC50 (C. glabrata (ATCC 90030)) was 12.5 µg/mL (≈ 25.4 µM), the MIC50 (C. krusei (ATCC 6258)) was 6.25 µg/mL (≈ 12.7 µM) and the MIC50 [2] was 12.5 µg/mL (≈ 25.4 µM).

With `CCn1c(SCC(=O)c2ccccc2)nnc1-c1ccc(-c2nc3ccc(Cl)cc3[nH]2)cc1` [Compound 5p, 2-((5-(4-(6-Chloro-1H-benzimidazol-2-yl)phenyl)-4-ethyl-4H-1,2,4-triazol-3-yl)thio)-1-phenylethan-1-one] the “anticandidal activity against Candida strains (in words)” value (Candida species) was “did not show strong activity”, the melting point was 248.5 °C and the MIC50 (C. albicans (ATCC 24433)) was 12.5 µg/mL (≈ 26.4 µM). The MIC50 (C. glabrata (ATCC 90030)) was 12.5 µg/mL (≈ 26.4 µM), the MIC50 (C. krusei (ATCC 6258)) was 50 µg/mL (≈ 105 µM) and the MIC50 [2] was 25 µg/mL (≈ 52.7 µM).

`CCn1c(SCC(=O)c2ccc(F)cc2)nnc1-c1ccc(-c2nc3ccc(F)cc3[nH]2)cc1` [Compound 5ab, 2-((4-Ethyl-5-(4-(6-fluoro-1H-benzimidazol-2-yl)phenyl)-4H-1,2,4-triazol-3-yl)thio)-1-(4-fluorophenyl)ethan-1-one] gave an MIC50 (Candida species) of 0.78 to 1.56 µg/mL (≈ 1.64 to 3.28 µM), an IC50 [1] of 43.1 ± 2.88 µg/mL (≈ 90.7 µM) and a melting point of 251 °C. It also gave an MIC50 (C. albicans (ATCC 24433)) of 0.78 µg/mL (≈ 1.64 µM), an MIC50 (C. glabrata (ATCC 90030)) of 1.56 µg/mL (≈ 3.28 µM) and an MIC50 (C. krusei (ATCC 6258)) of 1.56 µg/mL (≈ 3.28 µM). The MIC50 [2] was 0.78 µg/mL (≈ 1.64 µM).

`CCn1c(SCC(=O)c2ccc(Cl)cc2Cl)nnc1-c1ccc(-c2nc3ccc(F)cc3[nH]2)cc1` [Compound 5ac, 1-(2,4-Dichlorophenyl)-2-((4-ethyl-5-(4-(6-fluoro-1H-benzimidazol-2-yl)phenyl)-4H-1,2,4-triazol-3-yl)thio)ethan-1-one] showed an MIC50 (Candida species) of 1.56 to 3.12 µg/mL (≈ 2.96 to 5.93 µM), a melting point of 223.3 °C and an MIC50 (C. albicans (ATCC 24433)) of 1.56 µg/mL (≈ 2.96 µM). The MIC50 (C. glabrata (ATCC 90030)) was 1.56 µg/mL (≈ 2.96 µM), the MIC50 (C. krusei (ATCC 6258)) was 1.56 µg/mL (≈ 2.96 µM) and the MIC50 [2] was 1.56 µg/mL (≈ 2.96 µM).
